Laboratory results published in PMC7993375, “Discovery of novel quinoline-based analogues of combretastatin A-4 as tubulin polymerisation inhibitors with apoptosis inducing activity and potent anticancer effect” (Journal of Enzyme Inhibition and Medicinal Chemistry, 2021).
Where two headings read alike, the source gives them in different places.

Experiments:
[1] = test system: tubulin (colchicine binding site); experiment: Colchicine site competitive binding assay ([3H]colchicine); conditions: tubulin 1 µM, colchicine 5 µM
Protocol: The affinity of compounds 12c to colchicine binding site was determined using Colchicine Site Competitive Assay kit CytoDYNAMIX Screen15 (Cytoskeleton, Inc., Denver, CO, USA) using the standard protocol of the manufacturer to determine Ki. Biotin-labelled tubulin ([…], PerkinElmer, Waltham, MA) and the test compounds (positive control colchicine, negative control vinblastine, G-1, fluorescent G-1, or 2-ME) in a 96-well plate (final volume: 100 µL). After incubating for 2 h at 37 °C with gentle shaking, streptavidin-labelled yttrium SPA beads (80 µg in 20 µL reaction buffer, PerkinElmer, Waltham, MA) were added to each well and incubated for 30 min at 4 °C. The plates were then read on a scintillation counter (Packard Instrument, Topcount Microplate Reader) and the percentage of inhibition was calculated[50]^,[51].

HeLa = experiment: MTT cell viability assay, HeLa cervical adenocarcinoma cells; type: cell-based; conditions: Homo sapiens, 72 h
Protocol: (§1) The four human tumour cell lines MCF-7, HCT-116, HL-60 and HeLa used in this study were obtained from the VACSERA (Giza, Egypt) cell culture unit that were originally acquired from ATCC (Manassas, VA, USA). All the human tumour cell lines were cultured in Dulbecco’s Modified Eagle’s Medium (DMEM) with 10% foetal bovine serum, 2 mM L-glutamine and 100 µg/mL penicillin/streptomycin. Cells were maintained at 37 °C in 5% CO2 in a humidified incubator. All cells were sub-cultured 3 times/week by trypsinisation using TrypLE Express (1X).
(§2) The quinoline compounds were evaluated for antiproliferative effect using the MTT viability assay of four cancer cell lines (MCF-7, HCT-116, HL-60 and HeLa) and normal breast cells MCF-10A to calculate the relative IC50 values for each compound. Cells were seeded in triplicate in 96-well plates at a density of 10 × 10^3 cells/ml in a total volume of 200 µl per well. 0.1% of DMSO was used as a vehicle control. Following, the cells were treated with 2 µl test compound (from stock solutions in ethanol) to furnish the concentration range of study, 1 nM to 50 µM, and re-incubated for a further 72 h. The culture medium was then removed, and the cells washed with 100 µL phosphate buffered saline (PBS) and 50 µL MTT added, to reach a final concentration of 1 mg/mL. Cells were incubated for 2 h in darkness at 37 °C. Solubilisation was begun through the addition of […] DMSO, and the cells maintained at room temperature in darkness for 20 min to ensure thorough colour diffusion before reading the absorbance. Plates were incubated for 72 h at 37 °C + 5% CO2. The MTT (5 mg/mL in PBS) was added and incubated for another 4 h, and the optical density was detected with a microplate reader at 570 nm. Results were expressed as percentage viability relative to vehicle control (100%). Dose response curves were plotted and IC50 values (concentration of drug resulting in 50% reduction in cell survival) were obtained using the commercial software package Prism (GraphPad Software, Inc., La Jolla, CA, USA). All the experiments were repeated in at least three independent experiments.

bovine brain tubulin = experiment: Tubulin polymerisation assay; type: biochemical; conditions: Tubulin was at 10 µM; read-out: Tubulin assembly IC50 (inhibition of tubulin polymerisation)
Protocol: The assembly of purified bovine tubulin was monitored using a kit, BK006, purchased from Cytoskeleton Inc., (Denver, CO, USA). The assay was carried out in accordance with the manufacturer’s instructions using the standard assay conditions. Briefly, purified ([…]) in a buffer consisting of 80 mM PIPES (pH 6.9), 0.5 mM EGTA, 2 mM MgCl2, 1 mM GTP and 10% glycerol was incubated at 37 °C in the presence of either vehicle (2% (v/v) ddH2O), CA-4, or the quinoline compounds. Light is scattered proportionally to the concentration of polymerised microtubules in the assay. Therefore, tubulin assembly was monitored turbidimetrically at 340 nm in a Spectramax 340 PC spectrophotometer (Molecular Devices, Sunnyvale, CA, USA). The concentration that inhibits tubulin polymerisation by 50% (IC50) was determined using area under the curve (AUC). The AUC of the untreated controls were considered as 100% polymerisation. The IC50 value for each compound was computed using GraphPad Prism Software.

HL-60 = experiment: MTT cell viability assay, HL-60 leukaemia cells; type: cell-based; conditions: Homo sapiens
Protocol: as §1, §2

[2] = test system: pro-apoptotic protein Bax; experiment: Bax ELISA, expression level in MCF-7 cells; type: cell-based, human; conditions: MCF-7, 250 nM, 48 h
Protocol: (§3) The level of the anti-apoptotic marker and apoptotic marker BAX were assessed using Bcl-2 Elisa kit and human Bax ELISA Kit purchased from Zymed laboratories, invitrogen and Cloud-Clone Crop. (Katy, TX, USA), respectively, following the manufacturer’s instructions. Briefly, Treated MCF-7 cell lysate with 250 nM of compound 12c were prepared, and equal amount of cell lysates were loaded and propped with specific antibodies. The samples were measured and analysed at 450 nm in ROBONEK P2000 ELISA reader. In Vitro Caspase-9 Activation Assay was performed using human active caspase-9 Invitrogen EIA kit according to the manufacturer’s instructions. Compound 12c at concentrations of 50 and 250 nM and CA-4 (50 nM) were prepared in dH2O up to a final volume of 50 µL/well followed by addition of 5 µL of active caspase-9. Following, the cells were mixed and 50 µL of the Master Mix was added to each well and allowed to react at 37 °C for 1 h. The fluorescence intensity of the test samples was recorded and analysed in a fluorescence plate reader at 400 nm excitation and 505 nm emissions. All experiments were conducted in triplicates.

[3] = test system: anti-apoptotic protein Bcl-2; experiment: Bcl-2 ELISA, expression level in MCF-7 cells; type: cell-based, human; conditions: MCF-7, 250 nM, 48 h
Protocol: as §3

MCF-7 cells = experiment: Colony formation assay; type: cell-based, human; conditions: 50 and 250 nM
Protocol: MCF-7 cells (600 cells per well) were seeded in 6-well plates and incubated for 24 h before being then treated with different doses of the compound 12c (50 and 250 nM) for 14 days. Following, the cells were washed with PBS twice and subsequently fixed with 4% paraformaldehyde and stained with 0.05% crystal violet for 30 min. Finally, cells were visualised using an inverted microscope.

[4] = 72 h, read-out: IC50 value, HL-60

Row | Structure (SMILES) | Colchicine binding, % inhibition of [3H]colchicine binding ([1]; 1 µM drug) [%] | Colchicine binding, % inhibition of [3H]colchicine binding ([1]; 5 µM drug) [%] | IC50 (HeLa) [nM] | IC50 (bovine brain tubulin) [nM] | IC50 (HL-60; [4]) [nM] | expression of the pro-apoptotic protein Bax [2] | expression level of the anti-apoptotic protein Bcl-2 [3] | clonogenic formation potential of MCF-7 cells (MCF-7 cells) | IC50 (HL-60; read-out: IC50, HL-60) [nM]
1 | COc1ccc(/C=C\c2cc(OC)c(OC)c(OC)c2)cc1O [CA-4, Combretastatin A-4] | 86 ± 0.9 | 97 ± 2 | 64 ± 4 | […] | 76 ± 4 |  |  |  | 
2 | COc1cc(C2=NC(=Cc3cc4ccc(C)cc4nc3OC)C(=O)O2)cc(OC)c1OC [Compound 12c, 4-[(2-Methoxy-7-methylquinolin-3-yl)methylene]-2–(3,4,5-trimethoxyphenyl) oxazol-5(4H)-one] | 79 ± 2 | 87 ± 1 | 42 ± 1 | 1210 | 19 | up-regulated | decreased | suppressed the clonogenic formation potential of MCF-7 cells in a dose dependent manner | 10
